This note sets out measurements from patent US20190134005A1 (BioMarin Pharmaceutical Inc., priority 2016, published 2019).

The structures appear in SMILES notation.

Broadly, the IC50 is the concentration that inhibits the measured activity by half. Read a high IC50 as weaker potency in that assay.

For this assay, the target named is T1, human CGT (Homo sapiens, UniProt Q16880).
T1 sequence (Q16880 21-541): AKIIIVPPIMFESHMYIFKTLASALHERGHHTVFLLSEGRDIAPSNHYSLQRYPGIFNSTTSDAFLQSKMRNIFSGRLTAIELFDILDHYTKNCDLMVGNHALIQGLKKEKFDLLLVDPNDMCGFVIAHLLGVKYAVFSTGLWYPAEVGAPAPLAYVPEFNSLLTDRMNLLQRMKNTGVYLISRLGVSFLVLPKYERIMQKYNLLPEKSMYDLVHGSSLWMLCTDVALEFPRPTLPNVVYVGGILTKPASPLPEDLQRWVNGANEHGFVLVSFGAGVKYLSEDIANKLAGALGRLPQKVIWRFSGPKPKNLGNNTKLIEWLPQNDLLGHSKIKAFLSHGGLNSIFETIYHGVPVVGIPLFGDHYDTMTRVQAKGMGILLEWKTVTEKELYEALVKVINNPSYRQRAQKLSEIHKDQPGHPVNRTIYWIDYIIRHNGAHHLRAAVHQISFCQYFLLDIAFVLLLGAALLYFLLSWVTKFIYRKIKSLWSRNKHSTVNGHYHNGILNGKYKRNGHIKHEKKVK
Put plainly: CGT Enzyme Assay (Biological Example 2, RapidFire/MS/MS method with 0.01% Tween 80 added). The assay is classed as biochemical. Conditions: enzymatic assay, CHO/CGT lysate. As for the experimental part:
Full-length human CGT cDNA was cloned into the BamH1/Xho1 site of pcDNA3.1 (+) mammalian expression vector (V90-20, Invitrogen, Carlsbad, Calif.) and the plasmid was transfected into Chinese hamster ovary (CHO) cells. Lysate was prepared using M-PER (Mammalian Protein Extraction Reagent, ThermoFisher Scientific, Grand Island, N.Y.) in the presence of a protease inhibitor cocktail (P8340, Sigma, Saint Louis, Mo.). Each 100 mm dish (100% confluent, approximately 1×10^7 cells) was lysed with 250 μL of M-PER containing protease inhibitors. Protein concentration was determined using a Pierce BCA protein assay kit (ThermoFisher Scientific). […] The final concentration of DMSO was 0.5% in both compound-treated and mock-treated samples. Each individual reaction was diluted with 80 μL of methanol:acetronitrile (1:3) containing 5 μM N-docdecanoyl-NBD-galactosylceramide (internal standard) to stop the reaction. 200 μL H2O:acetonitile (1:1) was added to precipitate the protein. After sufficient mixing, the plates were centrifuged at 2469 g for 38 minutes, 200 μl of supernatant was transferred to a LC-MS 96-deep well plate and a second spin was performed at 2469 g for 10 minutes. The final supernatant was injected in triplicate for RapidFire/MS/MS analysis.
The quantitative analysis of C6-NBD-dihydro-ceramide and C6-NBD-dihydro-galactosylceramide was performed on a Rapid Fire 360 high-throughput mass spectrometry system (Agilent Technologies, Palo Alto, Calif.) coupled with a API4000^+ triple quadrupole mass spectrometer (Applied Biosystems, Concord, Ontario, Canada). RapidFire software packages, including RapidFire Control panel, RapidFire UI and RapidFire Integrator (Agilent Technologies), were used to control the RapidFire instrument and to process data. Analyst 1.6.2 software packages (Applied Biosystems) were used to control the MS system and acquire MS data. 10 μL of sample was loaded on a micro-scale C4 solid-phase extraction (SPE) cartridge (Agilent Technologies) and salts were removed using water supplemented with 0.1% formic acid at the flow rate of 1.5 mL/min for 3 sec. C6-NBD-dihydro-ceramide and C6-NBD-dihydro-galactosylceramide were co-eluted into the mass spectrometer using acetonitrile containing 0.1% formic acid at the flow rate of 1.0 mL/min for 3 sec. The total cycle time of one injection was 8 secs. The MS/MS detection was performed in ESI negative mode.
The C6-NBD-dihydro-galactosylceramide reading was normalized first by dividing the peak area of C6-NBD-dihydro-galactosylceramide by the peak area of the internal standard, N-docdecanoyl-NBD-galactosylceramide.
The compound `COC[C@]1(C)[C@H](c2cccc(C#N)c2)N(c2ccc(Cl)cc2)C(=O)N1c1ccc(Cl)cc1` [Example 38-2, 3-((4S,5S)-1,3-bis(4-chlorophenyl)-5-(methoxymethyl)-5-methyl-2-oxoimidazolidin-4-yl)benzonitrile] displayed an IC50 of less than 1 µM.
As for `Cc1ccc(N2C(=O)N(c3ccc(C#N)cc3)C3(COC3)[C@H]2c2cccc(C#N)c2)cc1` [Example 57-1, (R)-3-(5-(4-cyanophenyl)-6-oxo-7-(p-tolyl)-2-oxa-5,7-diazaspiro[3.4]octan-8-yl)benzonitrile], the IC50 lay within 10 to 30 µM.
The figure for `CCC[C@]1(C)[C@@H](c2cccc(C#N)c2)N(c2ccc(Cl)cc2)C(=O)N1c1ccc(Cl)cc1` [Example 33-1, 3-((4R,5R)-1,3-bis(4-chlorophenyl)-5-methyl-2-oxo-5-propylimidazolidin-4-yl)benzonitrile] is less than 1 µM; for `CC1(C)[C@@H](c2cccc(OC(F)(F)F)c2)N(c2ccc(C#N)cc2)C(=O)N1c1ccc(Cl)cc1` [Example 40-1, (R)-4-(3-(4-chlorophenyl)-4,4-dimethyl-2-oxo-5-(3-(trifluoromethoxy)phenyl)imidazolidin-1-yl)benzonitrile] it is 10 to 30 µM; for `CCC[C@]1(C)[C@@H](c2cccc(OC(F)(F)F)c2)N(c2ccc(Cl)cc2)C(=O)N1c1ccc(Cl)cc1` [Example 22-2, (4R,5R)-1,3-bis(4-chlorophenyl)-4-methyl-4-propyl-5-(3-(trifluoromethoxy)phenyl)imidazolidin-2-one] it is less than 1 µM.
The figure for `C[C@H]1[C@H](c2cccc(C#N)c2)N(c2ccc(Cl)cc2)C(=O)N1c1ccc(Cl)cc1` [Example 5-2, 3-((4S,5S)-1,3-bis(4-chlorophenyl)-5-methyl-2-oxoimidazolidin-4-yl)benzonitrile] is 10 to 30 µM; for `O=C1N(c2ccc(Cl)cc2)[C@@H](c2cccc(OC(F)(F)F)c2)C2(CCCC2)N1c1ccc(Cl)cc1` [Example 15-3, (S)-1,3-bis(4-chlorophenyl)-4-(3-(trifluoromethoxy)phenyl)-1,3-diazaspiro[4.4]nonan-2-one] it is 10 to 30 µM.
Compound `CC1(C)[C@@H](c2cccc(OC(F)(F)F)c2)N(c2ccc(Cl)cc2)C(=O)N1c1ccc(Cl)cc1` [Example 7-1, (R)-1,3-bis(4-chlorophenyl)-4,4-dimethyl-5-(3-(trifluoromethoxy)phenyl)imidazolidin-2-one] registered an IC50 of 1 to 10 µM.
As for `Cc1ccc(N2C(=O)N(c3ccc(Cl)cc3)[C@H](c3cccc(OC(F)(F)F)c3)C2(C)C)cc1` [Example 56-1, (R)-1-(4-chlorophenyl)-4,4-dimethyl-3-(p-tolyl)-5-(3-(trifluoromethoxy)phenyl)imidazolidin-2-one], the figure is 10 to 30 µM; as for `CC1(C)[C@@H](c2cccc(OC(F)(F)F)c2)N(c2ccc(C(F)(F)F)cc2)C(=O)N1c1ccc(C(F)(F)F)cc1` [Example 20-1, (R)-4,4-dimethyl-5-(3-(trifluoromethoxy)phenyl)-1,3-bis(4-(trifluoromethyl)phenyl)imidazolidin-2-one], less than 1 µM; as for `CC[C@@]1(C)[C@@H](c2cccc(OC(F)(F)F)c2)N(c2ccc(C#N)cc2)C(=O)N1c1ccc(C#N)cc1` [Example 51-6, 4,4′-((4S,5R)-4-ethyl-4-methyl-2-oxo-5-(3-(trifluoromethoxy)phenyl)imidazolidine-1,3-diyl)dibenzonitrile], 10 to 30 µM.
The figure for `CC1(C)[C@H](c2cccc(Cl)c2)N(c2ccc(Cl)cc2)C(=O)N1c1ccc(Cl)cc1` [Example 8-2, (S)-5-(3-chlorophenyl)-1,3-bis(4-chlorophenyl)-4,4-dimethylimidazolidin-2-one] is less than 1 µM; for `CC[C@@]1(C)[C@@H](c2cccc(C#N)c2)N(c2ccc(Cl)cc2)C(=O)N1c1ccc(Cl)cc1` [Example 34-3, 3-((4R,5S)-1,3-bis(4-chlorophenyl)-5-ethyl-5-methyl-2-oxoimidazolidin-4-yl)benzonitrile] it is less than 1 µM.
As for `CC[C@]1(C)[C@H](c2cccc(OC(F)(F)F)c2)N(c2ccc(C#N)cc2)C(=O)N1c1ccc(C#N)cc1` [Example 51-2, 4,4′-((4R,5S)-4-ethyl-4-methyl-2-oxo-5-(3-(trifluoromethoxy)phenyl)imidazolidine-1,3-diyl)dibenzonitrile], the figure is less than 1 µM; as for `O=C1N(c2ccc(Cl)cc2)[C@H](c2cccc(OC(F)(F)F)c2)C2(CCCC2)N1c1ccc(Cl)cc1` [Example 15-2, (R)-1,3-bis(4-chlorophenyl)-4-(3-(trifluoromethoxy)phenyl)-1,3-diazaspiro[4.4]nonan-2-one], less than 1 µM; as for `O=C1N(c2ccc(Cl)cc2)[C@H]2CCC[C@@]2(c2cccc(OC(F)(F)F)c2)N1c1ccc(Cl)cc1` [Example 12-1, (3aS,6aS)-1,3-bis(4-chlorophenyl)-3a-(3-(trifluoromethoxy)phenyl)hexahydrocyclopenta[d]imidazol-2(1H)-one], 1 to 10 µM.
As to `Cc1ccc(N2C(=O)N(c3ccc(C#N)cc3)[C@@H](c3cccc(C#N)c3)C2(C)C)cc1` [Example 48-2, (S)-3-(3-(4-cyanophenyl)-5,5-dimethyl-2-oxo-1-(p-tolyl)imidazolidin-4-yl)benzonitrile], the 50% inhibitory concentration (IC50) was less than 1 µM.
The figure for `CC1(C)[C@@H](c2cccc(C#N)c2)N(c2ccc(C(F)(F)F)cc2)C(=O)N1c1ccc(C(F)(F)F)cc1` [Example 24-1, (R)-3-(5,5-dimethyl-2-oxo-1,3-bis(4-(trifluoromethyl)phenyl)imidazolidin-4-yl)benzonitrile] is less than 1 µM.
As for `C[C@@]1(C(F)(F)F)[C@H](c2cccc(OC(F)(F)F)c2)N(c2ccc(Cl)cc2)C(=O)N1c1ccc(Cl)cc1` [Example 25-1], the figure is less than 1 µM.
As for `N#Cc1ccc(N2C(=O)N(c3ccc(Cl)cc3)[C@H](c3cccc(OC(F)(F)F)c3)C23COC3)cc1` [Example 46-1, (R)-4-(7-(4-chlorophenyl)-6-oxo-8-(3-(trifluoromethoxy)phenyl)-2-oxa-5,7-diazaspiro[3.4]octan-5-yl)benzonitrile], the figure is less than 1 µM.
For the compound `N#Cc1ccc(N2C(=O)N(c3ccc(Cl)cc3)C3(COC3)[C@@H]2c2cccc(OC(F)(F)F)c2)cc1` [Example 47-2, (S)-4-(5-(4-chlorophenyl)-6-oxo-8-(3-(trifluoromethoxy)phenyl)-2-oxa-5,7-diazaspiro[3.4]octan-7-yl)benzonitrile], the half-inhibitory concentration (IC50) was less than 1 µM.
The figure for `C[C@@H]1[C@@H](c2cccc(C#N)c2)N(c2ccc(Cl)cc2)C(=O)N1c1ccc(Cl)cc1` [Example 5-1, 3-((4R,5R)-1,3-bis(4-chlorophenyl)-5-methyl-2-oxoimidazolidin-4-yl)benzonitrile] is 10 to 30 µM; for `C[C@H]1[C@H](c2cccc(OC(F)(F)F)c2)N(c2ccc(Cl)cc2)C(=O)N1c1ccc(Cl)cc1` [Example 4-1, (4S,5S)-1,3-bis(4-chlorophenyl)-4-methyl-5-(3-(trifluoromethoxy)phenyl)imidazolidin-2-one] it is 10 to 30 µM; for `Cc1ccc(N2C(=O)N(c3ccc(C)cc3)C3(COC3)[C@H]2c2cccc(C#N)c2)cc1` [Example 32-1, (R)-3-(6-oxo-5,7-di-p-tolyl-2-oxa-5,7-diazaspiro[3.4]octan-8-yl)benzonitrile] it is 10 to 30 µM.
